Results: PubChem BioAssay (NCI)
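Growth conditions: 96-well plates. Treatment: test compound, 48 hours, 5 concentrations. Analysis: linear interpolation between bracketing concentrations; unreached endpoints set to highest concentration. TGI denotes the concentration required for complete inhibition of growth.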

Columns and labels:
Experiment in all cases: NCI-60 cell line screen, 48 h
[1] = tested on: OVCAR-5 ovarian
[2] = tested on: SK-MEL-28 melanoma
[3] = tested on: A498 renal
[4] = tested on: HOP-92 NSCLC
[5] = tested on: MDA-N
[6] = tested on: CCRF-CEM leukemia
[7] = tested on: SF-268 CNS
[8] = tested on: SNB-19 CNS
[9] = tested on: SW-620 colon
[10] = tested on: MDA-MB-231 breast
[11] = tested on: SK-OV-3 ovarian
[12] = tested on: UACC-257 melanoma
[13] = tested on: U251 CNS
[14] = tested on: NCI-H460 lung
[15] = tested on: OVCAR-8 ovarian
[16] = tested on: NCI/ADR-RES ovarian
[17] = tested on: ACHN renal
[18] = tested on: KM12 colon
[19] = tested on: MALME-3M melanoma
[20] = tested on: SR leukemia
[21] = tested on: NCI-H522 lung
[22] = tested on: DU-145 prostate
[23] = tested on: SN12C renal
[24] = tested on: HCC-2998 colon
[25] = tested on: OVCAR-3 ovarian
[26] = tested on: UO-31 renal
[27] = tested on: IGROV1 ovarian
[28] = tested on: SF-295 CNS
[29] = tested on: A549 NSCLC
[30] = tested on: MOLT-4 leukemia
[31] = tested on: 786-0 renal
[32] = tested on: PC-3 prostate
[33] = tested on: NCI-H23 lung
[34] = tested on: T-47D breast
[35] = tested on: LOX IMVI melanoma
[36] = tested on: K-562 leukemia
[37] = tested on: TK-10 renal
[38] = tested on: MDA-MB-435
[39] = tested on: HCT-15 colon
[40] = tested on: HT29 colon
[41] = tested on: M14 melanoma
[42] = tested on: COLO 205 colon
[43] = tested on: HCT-116 colon
[44] = tested on: UACC-62 melanoma
[45] = tested on: MCF7 breast
[46] = tested on: NCI-H226 lung
[47] = tested on: RXF 393 renal
[48] = tested on: OVCAR-4 ovarian
[49] = tested on: SF-539 CNS
[50] = tested on: RPMI-8226 leukemia
[51] = tested on: EKVX NSCLC
[52] = tested on: HL-60(TB) leukemia
[53] = tested on: BT-549 breast
[54] = tested on: HOP-62 NSCLC
[55] = tested on: SK-MEL-2 melanoma
[56] = tested on: SNB-75 CNS
[57] = tested on: HS 578T breast
[58] = tested on: CAKI-1 renal
[59] = tested on: SK-MEL-5 melanoma

For `NC(=S)N/N=C1\CCc2ccccc2C1`, the TGI [1] was > 100 µM, the TGI [2] was > 100 µM and the TGI [3] was > 100 µM. For the same compound, the TGI [4] was > 100 µM, the TGI [5] was > 100 µM and the TGI [6] was > 100 µM. For the same compound, the TGI [7] was > 100 µM, the TGI [8] was > 100 µM and the TGI [9] was > 100 µM. For the same compound, the TGI [10] was > 100 µM, the TGI [11] was > 100 µM and the TGI [12] was > 100 µM. For the same compound, the TGI [13] was > 100 µM, the TGI [14] was > 100 µM and the TGI [15] was > 100 µM. For the same compound, the TGI [16] was > 100 µM, the TGI [17] was > 100 µM and the TGI [18] was > 100 µM. The TGI [19] was > 100 µM, the TGI [20] was > 100 µM and the TGI [21] was > 100 µM. The TGI [22] was > 100 µM, the TGI [23] was > 100 µM and the TGI [24] was > 100 µM. For the same compound, the TGI [25] was > 100 µM, the TGI [26] was > 100 µM and the TGI [27] was > 100 µM. For the same compound, the TGI [28] was > 100 µM, the TGI [29] was > 100 µM and the TGI [30] was > 100 µM. For the same compound, the TGI [31] was > 100 µM, the TGI [32] was > 100 µM and the TGI [33] was > 100 µM. For the same compound, the TGI [34] was > 100 µM, the TGI [35] was > 100 µM and the TGI [36] was > 100 µM. For the same compound, the TGI [37] was > 100 µM, the TGI [38] was > 100 µM and the TGI [39] was > 100 µM. For the same compound, the TGI [40] was > 100 µM, the TGI [41] was > 100 µM and the TGI [42] was > 100 µM. For the same compound, the TGI [43] was > 100 µM, the TGI [44] was > 100 µM and the TGI [45] was > 100 µM. For the same compound, the TGI [46] was > 100 µM, the TGI [47] was > 100 µM and the TGI [48] was > 100 µM. The TGI [49] was > 100 µM, the TGI [50] was > 100 µM and the TGI [51] was > 100 µM. The TGI [52] was > 100 µM, the TGI [53] was > 100 µM and the TGI [54] was > 100 µM.

For `NC(N)=N/N=C/c1c(Cl)nc2n1CCS2`, the TGI [1] was > 100 µM, the TGI [2] was > 100 µM and the TGI [3] was > 100 µM. For the same compound, the TGI [4] was > 100 µM, the TGI [5] was > 100 µM and the TGI [6] was > 100 µM. The TGI [7] was > 100 µM, the TGI [8] was > 100 µM and the TGI [9] was > 100 µM. The TGI [11] was > 100 µM, the TGI [12] was > 100 µM and the TGI [13] was > 100 µM. The TGI [14] was > 100 µM, the TGI [15] was > 100 µM and the TGI [16] was > 100 µM. For the same compound, the TGI [17] was > 100 µM, the TGI [55] was > 100 µM and the TGI [18] was > 100 µM. The TGI [19] was > 100 µM, the TGI [20] was > 100 µM and the TGI [21] was > 100 µM. The TGI [22] was > 100 µM, the TGI [23] was > 100 µM and the TGI [24] was > 100 µM. The TGI [25] was > 100 µM, the TGI [26] was > 100 µM and the TGI [27] was > 100 µM. For the same compound, the TGI [28] was > 100 µM, the TGI [29] was > 100 µM and the TGI [56] was > 100 µM. For the same compound, the TGI [30] was > 100 µM, the TGI [31] was > 100 µM and the TGI [32] was > 100 µM. The TGI [33] was > 100 µM, the TGI [34] was > 100 µM and the TGI [35] was > 100 µM. The TGI [36] was > 100 µM, the TGI [37] was > 100 µM and the TGI [38] was > 100 µM. For the same compound, the TGI [39] was > 100 µM, the TGI [40] was > 100 µM and the TGI [41] was > 100 µM. For the same compound, the TGI [42] was > 100 µM, the TGI [43] was 73.7 µM and the TGI [44] was > 100 µM. The TGI [45] was > 100 µM, the TGI [46] was > 100 µM and the TGI [47] was > 100 µM. The TGI [48] was > 100 µM, the TGI [57] was > 100 µM and the TGI [49] was > 100 µM. The TGI [50] was > 100 µM, the TGI [51] was > 100 µM and the TGI [52] was > 100 µM. The TGI [53] was > 100 µM, the TGI [54] was > 100 µM and the TGI [58] was > 100 µM.

With `COc1ccc(C)cc1NC(=S)N/N=C/c1ccco1` the TGI [1] was > 100 µM, the TGI [2] was > 100 µM and the TGI [3] was > 100 µM. For the same compound, the TGI [4] was > 100 µM, the TGI [5] was 68.7 µM and the TGI [6] was > 100 µM. The TGI [7] was > 100 µM, the TGI [8] was > 100 µM and the TGI [9] was > 100 µM. The TGI [11] was > 100 µM, the TGI [12] was > 100 µM and the TGI [14] was > 100 µM. For the same compound, the TGI [15] was > 100 µM, the TGI [16] was > 100 µM and the TGI [17] was > 100 µM. The TGI [59] was 32.9 µM, the TGI [55] was 39.9 µM and the TGI [18] was > 100 µM. The TGI [19] was > 100 µM, the TGI [20] was > 100 µM and the TGI [21] was 69.2 µM. For the same compound, the TGI [22] was > 100 µM, the TGI [23] was > 100 µM and the TGI [24] was > 100 µM. For the same compound, the TGI [25] was > 100 µM, the TGI [26] was > 100 µM and the TGI [27] was > 100 µM. The TGI [28] was > 100 µM, the TGI [29] was > 100 µM and the TGI [56] was > 100 µM. The TGI [30] was > 100 µM, the TGI [31] was > 100 µM and the TGI [32] was > 100 µM. The TGI [33] was > 100 µM, the TGI [34] was > 100 µM and the TGI [35] was > 100 µM. For the same compound, the TGI [36] was > 100 µM, the TGI [38] was 92.2 µM and the TGI [39] was > 100 µM. For the same compound, the TGI [40] was > 100 µM, the TGI [41] was > 100 µM and the TGI [42] was 65.5 µM. For the same compound, the TGI [43] was > 100 µM, the TGI [44] was > 100 µM and the TGI [45] was > 100 µM. For the same compound, the TGI [46] was > 100 µM, the TGI [47] was > 100 µM and the TGI [48] was > 100 µM. For the same compound, the TGI [57] was > 100 µM, the TGI [49] was > 100 µM and the TGI [50] was 71.8 µM. For the same compound, the TGI [51] was 64.3 µM, the TGI [52] was 86.2 µM and the TGI [53] was > 100 µM. For the same compound, the TGI [54] was > 100 µM and the TGI [58] was > 100 µM.

`COc1cc2c(cc1OCCCN1CCOCC1)N=C[C@@H]1CCCN1C2=O` was tested, and the TGI [1] was 59.9 µM, the TGI [2] was 29.1 µM and the TGI [3] was 30.1 µM. It also gave a TGI [4] of 7.4 µM, a TGI [5] of 97.5 µM and a TGI [6] of 25.3 µM. The TGI [7] was > 100 µM, the TGI [8] was > 100 µM and the TGI [9] was 13.8 µM. For the same compound, the TGI [10] was > 100 µM, the TGI [11] was 87.5 µM and the TGI [12] was 78.9 µM. For the same compound, the TGI [13] was > 100 µM, the TGI [14] was > 100 µM and the TGI [15] was 98.3 µM. The TGI [16] was > 100 µM, the TGI [17] was 92 µM and the TGI [59] was 27.4 µM. For the same compound, the TGI [55] was > 100 µM, the TGI [18] was 43.4 µM and the TGI [19] was 33.6 µM. The TGI [20] was 39.8 µM, the TGI [21] was 3.97 µM and the TGI [22] was 76.9 µM. The TGI [23] was > 100 µM, the TGI [25] was 8.08 µM and the TGI [26] was > 100 µM. For the same compound, the TGI [28] was 42.1 µM, the TGI [29] was > 100 µM and the TGI [30] was > 100 µM. For the same compound, the TGI [31] was > 100 µM, the TGI [32] was 72.4 µM and the TGI [35] was > 100 µM. For the same compound, the TGI [36] was > 100 µM, the TGI [37] was > 100 µM and the TGI [38] was 31 µM. It also gave a TGI [39] of 74.2 µM, a TGI [40] of 47.7 µM and a TGI [41] of 29.1 µM. It also gave a TGI [42] of 4.55 µM, a TGI [43] of 54.3 µM and a TGI [44] of 29.2 µM. For the same compound, the TGI [45] was > 100 µM, the TGI [46] was 65.9 µM and the TGI [47] was 8.13 µM. For the same compound, the TGI [48] was 40.1 µM, the TGI [57] was > 100 µM and the TGI [49] was 22.3 µM. For the same compound, the TGI [50] was 5.83 µM, the TGI [51] was 47.1 µM and the TGI [52] was 29.6 µM. For the same compound, the TGI [53] was > 100 µM, the TGI [54] was 62.8 µM and the TGI [58] was 26.3 µM.
